The test system of test [1] is EAE (Experimental Autoimmune Encephalomyelite) mice. Description: EAE mouse model, intraventricular pump from clinical score 1. It is filed as in vivo, SJL/j mice. An excerpt: We carried out trials in mouse models exemplifying 3 families of neurological diseases: • EAE (Experimental Autoimmune Encephalomyelite, model of neuroinflammatory disease): SJL/j mice were immunized with two subcutaneous injections, performed 7 days apart, of proteolipid protein (PLP139-151), Freund's adjuvant and inactivated Mycobacterium tuberculosis. The disease severity was rated with a clinical score: 0=healthy; 1=tail weakness; 2=rear limb ataxia and/or paresis; 3=rear limb paralysis and/or front limb paresis; 4=tetraplegia; 5=state of agony or death • AD (Alzheimer's Disease, model of neurodegenerative disease): AD triple transgenic mouse (3xTg-AD) supplied by Jackson Laboratories (http://jaxmice.jax.org/strain/004807.html) Their memory was evaluated using the Passive Avoidance and Radial Maze tests; • TSC (Tuberous sclerosis complex, model of neuro-oncologic disease): TSC1 mouse with TSC1 gene within a flox cassette, supplied by Jackson Laboratories (http://jaxmice.jax.org/strain/005680.html)
30 SJL/j mice were immunized and started developing the disease after 11 days. As they developed the neurological deficit and reached a score of 1, they were operated on and an Alzet 1004 pump containing everolimus or a vehicle was positioned. The purpose of this was to represent the usual clinical situation in which the patient goes to the doctor's on the occasion of the first attack. Generally speaking, a diagnosis is made and a high-dose steroid therapy is applied, with good regression of the symptoms, but in the majority of cases other attacks will occur and they will be followed by an increasingly less satisfactory regression, with a gradual increase in residual disability.
In our experimental set, the weight and clinical score of affected mice were monitored daily.

For test [2], the system named is p70-S6 kinase phosphorylation (measure of mTOR activity). Kind of test: Western blot of p70S6K phosphorylation in brain, liver and spleen (verification of mTOR inhibition). It is filed as in vivo, mice. How it is done:
The frozen mouse tissues were homogenized in T-PER solution (Pierce) containing a cocktail of protease inhibitors (Sigma-Aldrich) and a cocktail of phosphatase inhibitors (Sigma-Aldrich). The homogenized samples were sonicated 3 times for 15 sec (amplitude of 10 microns) at 4° C. using an MSE soniprep 150 sonicator (Sanyo), and subsequently centrifuged at 4° C. for 30 minutes at 16000 g. The supernatant was recovered and the proteins quantified by means of a Bradford assay using BSA as the standard.
For the Western blot analysis, the proteins were separated by SDS-PAGE under reducing conditions according to the method of Laemmli. Subsequently, the proteins were transferred onto a PVDF membrane (Biorad), which was incubated with the following primary antibodies: anti-phospho-p70S6K (T^389), anti-phospho-p70S6K (S^371), anti-p70S6K (Cell Signaling) and anti-actin (Sigma-Aldrich). After being washed with TBS-Tween (50 mM Tris, pH 7.5, NaCl […] and 0.1% Tween 20), the membrane was incubated with one of the following secondary antibodies: anti-rabbit IgG conjugated to HRP (GE Healthcare) and anti-mouse IgG conjugated to HRP (GE Healthcare). The membrane was developed by means of ECL prime (GE Healthcare).
Verification of mTOR inhibition. We analyzed the actual inhibition of mTOR by WB. mTOR is a kinase with multiple substrates, one of which is p70-S6 kinase. Phosphorylation of the latter is unanimously considered a measure of mTOR activity.
(In general: In western blotting, separated proteins are transferred to a membrane and probed.)

Each structure is given as a SMILES string.

Turning to `CO[C@H]1C[C@@H]2CC[C@@H](C)[C@@](O)(O2)C(=O)C(=O)N2CCCC[C@H]2C(=O)O[C@H]([C@H](C)C[C@@H]2CC[C@@H](OCCO)[C@H](OC)C2)CC(=O)[C@H](C)/C=C(\C)[C@@H](O)[C@@H](OC)C(=O)[C@H](C)C[C@H](C)/C=C/C=C/C=C/1C` [everolimus], in test [1] (EAE mice), the “Immunosuppressive effect of intrathecal administration” value is recorded as “powerful local immunosuppressive effect”. Moreover, the “Severity of the following 2 attacks” value in test [1] (intraventricular pump implanted at score 1, vs controls) is listed as “not much milder than in the controls”. The “Severity of the first attack” value in test [1] (intraventricular pump implanted at score 1, vs vehicle) was “reduction in the severity of the first attack”. In addition, in test [1] (intraventricular pump, controls continued to have recurring attacks), the “Attacks after the third attack” value is on record as “no longer manifested attacks”. The “Clinical score after the third attack” value in test [1] (score scale 0=healthy to 5=agony or death) is reported as 0. In test [1] (treated EAE mice, FIG. 3), the “Body weight after the third attack” value is reported as “fully recovered”. Also, the “Inhibition of mTOR as shown by WB” value in test [2] (intrathecal treatment) is recorded as “local, but not systemic, inhibition of mTOR”. Besides, the “Phosphorylation state of p70-S6 kinase in the brain vs controls” value in test [2] (selected dose (12.5 mg/Kg) intraventricular, brain, FIG. 1) is “less phosphorylated form than in the controls”. The “Phosphorylation state of p70-S6 kinase in the spleen and liver” value in test [2] (selected dose (12.5 mg/Kg) intraventricular, spleen and liver, FIG. 1) is listed as “normally phosphorylated”.

(Values after patent US20160324770A1, “INTRATHECAL ADMINISTRATION, PREFERABLY INTRAVENTRICULAR, OF MTOR INHIBITORS FOR THE THERAPY OF SOME NEURODEGENERATIVE, NEUROINFLAMMATORY AND NEURO-ONCOLOGIC DISEASES” (priority 2012, published 2016).)
